Seven molecules from patent publication US11554122B2, “Fused pentacyclic imidazole derivatives as modulators of TNF activity” (UCB Biopharma SRL, priority 2018, dated 2023) can be followed below.

Each structure is given as a SMILES string. pIC50: −log10 of the molar value.

The target in this assay is T1, TNFα (Homo sapiens, UniProt P01375).
T1 construct: a human whole blood assay driven by endogenously expressed TNFα; endogenous in cells; host or cells: EDTA anticoagulated human whole blood, stimulated with 1 ug/ml zymosan
T1 sequence (P01375 77-233 limits assumed): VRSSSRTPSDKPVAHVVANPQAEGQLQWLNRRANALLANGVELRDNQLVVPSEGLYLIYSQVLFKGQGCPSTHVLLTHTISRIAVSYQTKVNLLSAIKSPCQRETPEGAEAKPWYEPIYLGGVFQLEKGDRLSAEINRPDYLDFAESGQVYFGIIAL
The experiment in a line: TNF human whole blood screening assay: CD11b expression on granulocytes after zymosan challenge. The following applies: whole blood IC50 multiplied by the unbound fraction (Fu) in human blood; read-out: free IC50 in the human whole blood assay. In kind it is cell-based. As to the method: Furthermore, the compounds in accordance with the present invention are potent inhibitors of CD11b expressed on granulocytes in human blood cells, when tested in the human whole blood assay as described herein.
TNF Human Whole Blood Screening Assay
The compounds according to the Examples were assessed in a human whole blood assay driven by endogenously expressed TNFα by measuring the expression of CD11b on granulocytes in human whole blood challenged with zymosan. Zymosan binds to TLR2 and other receptors, leading to NF-κB signalling which in turn induces the production of pro-inflammatory mediators, including TNFα. In turn, TNFα can stimulate the expression of CD11b on granulocytes.
Compounds were diluted from 10 mM DMSO stocks (final assay concentration of 0.2% DMSO) to generate a 10-point 2.5-fold serial dilution curve (for example, 20,000 nM to 5.3 nM final assay concentration). Diluted compound was preincubated with EDTA anticoagulated human whole blood for 60 minutes at 37° C. prior to stimulation with 1 ug/ml zymosan. After 3 hours stimulation with zymosan, the whole blood was stained with fluorescent labelled anti CD45 and anti CD11b antibodies. The samples were fixed and red blood cells lysed before analysis with a FACS CANTO II.
FACS (Fluoresceence Activated Cell Sorting) analysis was performed with FloJo software. SSC-A (Side Scatter Area of peak) and CD45 signal was used to identify granulocytes, followed by SSC-A and SSC-W (Side Scatter Width of peak) to select single cells. MESF (Molecules of Equivalent Soluble Fluorochrome) beads were used to calibrate the CD11b signal on single cell granulocytes. Activation of CD11b was inhibited in a dose dependent manner by the TNFα inhibitor.
Percentage inhibition of compounds was calculated against TNFα containing DMSO alone (control) and maximum inhibition generated with excess blocking anti-TNFα monoclonal antibody. An inhibition curve was constructed in ActivityBase using a 4 parameter logistic model (XLfit™). The point of inflexion between the fitted minimum and maximum effects of the inhibitor gives the IC50 value.
A calculated IC50 for the free compound (herein referred to as “free IC50”) that takes into account the extent of fraction unbound in blood was determined by multiplying the IC50 generated from the first assay (human whole blood screening assay) by the unbound fraction (Fu), generated from the second assay (human blood binding assay).
Take `CN1C(=O)c2cccc(OC(F)F)c2[C@H]2C[C@@H]1c1nc3ccc(-c4cnc([C@]5(C#N)C[C@@](C)(O)C5)c(F)c4)cc3n12` [Example 7, 1-[5-[(1R,11R)-18-(difluoromethoxy)-12-methyl-13-oxo-2,9,12-triazapentacyclo[9.8.1.02,10.03,8.014,19]icosa-3(8),4,6,9,14(19),15,17-heptaen-5-yl]-3-fluoropyridin-2-yl]-3-hydroxy-3-methylcyclobutane-1-carbonitrile]: the pIC50 is above 8.40.
Next, `[2H]C([2H])([2H])N1C(=O)c2cccc(OC(F)F)c2[C@H]2C[C@@H]1c1nc3ccc(-c4cnc([C@]5(O)C[C@@](C)(C#N)C5)nc4)cc3n12` [Example 1, 3-[5-[(1R,11R)-18-(difluoromethoxy)-13-oxo-12-(trideuteriomethyl)-2,9,12-triazapentacyclo[9.8.1.02,10.03,8.014,19]icosa-3(8),4,6,9,14(19),15,17-heptaen-5-yl]pyrimidin-2-yl]-3-hydroxy-1-methylcyclobutane-1-carbonitrile]: around 8.22.
The same measure for `C[C@]1(C#N)C[C@](O)(c2ncc(-c3ccc4nc5n(c4c3)[C@@H]3C[C@H]5NC(=O)c4cccc(OC(F)F)c43)cc2F)C1` [Example 5, 3-[5-[(1R,11R)-18-(difluoromethoxy)-13-oxo-2,9,12-triazapentacyclo[9.8.1.02,10.03,8.014,19]icosa-3,5,7,9,14(19),15,17-heptaen-5-yl]-3-fluoropyridin-2-yl]-3-hydroxy-1-methylcyclobutane-1-carbonitrile]: around 8.30; for `CN1C(=O)c2cccc(OC(F)F)c2[C@H]2C[C@@H]1c1nc3ccc(-c4cnc([C@]5(O)C[C@@](C)(C#N)C5)c(F)c4)cc3n12` [Example 4, 3-[5-[(1R,11R)-18-(difluoromethoxy)-12-methyl-13-oxo-2,9,12-triazapentacyclo[9.8.1.02,10.03,8.014,19]icosa-3,5,7,9,14(19),15,17-heptaen-5-yl]-3-fluoropyridin-2-yl]-3-hydroxy-1-methylcyclobutane-1-carbonitrile]: above 8.40; for `C[C@]1(C#N)C[C@](O)(c2ncc(-c3ccc4nc5n(c4c3)[C@@H]3C[C@H]5NC(=O)c4cccc(OC(F)F)c43)cn2)C1` [Example 2, 3-[5-[(1R,11R)-18-(difluoromethoxy)-13-oxo-2,9,12-triazapentacyclo[9.8.1.02,10.03,8.014,19]icosa-3(8),4,6,9,14(19),15,17-heptaen-5-yl]pyrimidin-2-yl]-3-hydroxy-1-methylcyclobutane-1-carbonitrile]: around 7.92.
The same measure for `C[C@]1(C#N)C[C@](O)(c2ncc(-c3cc4c(cc3F)nc3n4[C@@H]4C[C@H]3NC(=O)c3cccc(OC(F)F)c34)cn2)C1` [Example 3, 3-[5-[(1R,11R)-18-(difluoromethoxy)-6-fluoro-13-oxo-2,9,12-triazapentacyclo[9.8.1.02,10.03,8.014,19]icosa-3(8),4,6,9,14(19),15,17-heptaen-5-yl]pyrimidin-2-yl]-3-hydroxy-1-methylcyclobutane-1-carbonitrile]: around 8.22; for `CN1C(=O)c2cccc(OC(F)F)c2[C@H]2C[C@@H]1c1nc3ccc(-c4cnc([C@]5(C#N)C[C@@](C)(O)C5)nc4)cc3n12` [Example 6, 1-[5-[(1R,11R)-18-(difluoromethoxy)-12-methyl-13-oxo-2,9,12-triazapentacyclo[9.8.1.02,10.03,8.014,19]icosa-3(8),4,6,9,14(19),15,17-heptaen-5-yl]pyrimidin-2-yl]-3-hydroxy-3-methylcyclobutane-1-carbonitrile]: above 8.40.

Broadly, the pIC50 is the IC50 on a negative log10 scale, so that one unit is a factor of ten.
